Reference: US20160362416A1, “ANTIVIRAL COMPOUNDS” (Gilead Sciences, Inc., priority 2012, published 2016)

How the values were obtained:
[1] = test system: Y93N in genotype 1a NS5A replicon; assay: Resistance mutant replicon assay, genotype 1a NS5A Y93N; assay type: cell-based, HCV; details: Hepatitis C virus, read-out: 1a Y93N (nM)
Summary of the method: (§1)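 Mutant NS5A replicons (1a or 1b Pi-RLuc backbone; 3a NS5A in chimeric 1b) made by site-directed mutagenesis, RNA transiently transfected into Huh-7-derived cured-51 cells. Cells treated with 3-fold serial dilutions for 72 h; Renilla luciferase read; EC50 by non-linear regression.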

[2] = test system: stable HCV 1b RLuc replicon cells (genotype 1b Con1 replicon); assay: HCV genotype 1b RLuc replicon reporter assay; assay type: cell-based; details: Hepatitis C virus; stable genotype 1b Con1 RLuc replicon cells, 72 hours
Summary of the method: (§2)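 EC50 derived by non-linear regression of Renilla luciferase signal measured in lysates 72 h after adding 3-fold serial compound dilutions. Replicons: stable genotype 1b Con1 cells; transient Huh-Lunet transfections of NS5A chimeras—4a ED43 or 3a S52 in Con1, 2b MD2b-1 (M31) in JFH-1.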

[3] = test system: stable HCV 1a RLuc replicon cells (genotype 1a H77 replicon); assay: HCV genotype 1a RLuc replicon reporter assay; assay type: cell-based; details: Hepatitis C virus; stable genotype 1a H77 RLuc replicon cells, 72 hours
[4] = test system: NS5A chimeric genotype 1b Con1 replicon with genotype 4a ED43 strain NS5A gene; assay: HCV genotype 4a NS5A chimeric replicon assay; assay type: cell-based; details: Hepatitis C virus, 72 h, read-out: 4a (s) (nM)
[5] = test system: Y93H in genotype 1a NS5A replicon; assay: Resistance mutant replicon assay, genotype 1a NS5A Y93H; assay type: cell-based, HCV; details: Hepatitis C virus, read-out: 1a Y93H (nM)
Summary of the method: as §1

[6] = test system: NS5A chimeric genotype 2a JFH-1 replicon with genotype 2b MD2b-1 strain NS5A gene (M31); assay: HCV genotype 2b NS5A chimeric replicon assay, stable (s); assay type: cell-based; details: Hepatitis C virus, 72 h, read-out: 2b (s) (nM)
[7] = test system: Q30E in genotype 1a NS5A replicon; assay: Resistance mutant replicon assay, genotype 1a NS5A Q30E; assay type: cell-based, HCV; details: Hepatitis C virus, read-out: 1a Q30E (nM)
Summary of the method: as §1

[8] = test system: stable HCV 2a JFH-1 Rluc replicon cells (L31 present in NS5A); assay: HCV genotype 2a JFH-1 RLuc replicon reporter assay; assay type: cell-based; details: Hepatitis C virus, 72 h, read-out: 2a JFH (nM)
[9] = test system: NS5A chimeric genotype 1b Con1 replicon with genotype 3a S52 strain NS5A gene; assay: HCV genotype 3a NS5A chimeric replicon assay; assay type: cell-based; details: Hepatitis C virus, 72 h, read-out: 3a (nM)
Summary of the method: as §2

[10] = test system: L31V/Y93H in genotype 1b NS5A replicon; assay: Resistance mutant replicon assay, genotype 1b NS5A L31V/Y93H; assay type: cell-based, HCV; details: Hepatitis C virus, read-out: 1b L31V/Y93H (nM)
Summary of the method: as §1

| SMILES | EC50 [1] | EC50 [2] | EC50 [3] | EC50 [4] | EC50 [5] | EC50 [6] | EC50 [7] | EC50 [8] | EC50 [9] | EC50 [10] |
| --- | --- | --- | --- | --- | --- | --- | --- | --- | --- | --- |
| CC[C@H](C)[C@H](NC(=O)OC)C(=O)N1[C@@H](C)CC[C@H]1c1ncc(-c2ccc3c(c2)COc2cc4c(ccc5nc([C@@H]6CC[C@H](C)N6C(=O)[C@@H](NC(=O)OC)C6CCOCC6)[nH]c54)cc2-3)[nH]1 [Comp 4, reference compound] | 1.06 nM | 0.028 nM | 0.023 nM | 0.021 nM | 0.978 nM | 0.074 nM | 0.432 nM | 0.018 nM | 0.043 nM |  |
| COC(=O)N[C@H](C(=O)N1[C@@H](C)CC[C@H]1c1ncc(-c2ccc3c(c2)COc2cc4c(ccc5nc([C@@H]6CC[C@H](C)N6C(=O)[C@@H](NC(=O)OC)C6CC(C)O[C@H](C)C6)[nH]c54)cc2-3)[nH]1)C(C)C (stereo in doubt) [Example AQ, Methyl {(2S)-1-[(2S,5S)-2-(5-{2-[(2S,5S)-1-{(2S)-2-[(2R,6R)-2,6-dimethyltetrahydro-2H-pyran-4-yl]-2-[(methoxycarbonyl)amino]acetyl}-5-methylpyrrolidin-2-yl]-1,11-dihydroisochromeno[4′,3′:6,7]naphtho[1,2-d]imidazol-9-yl}-1H-imidazol-2-yl)-5-methylpyrrolidin-1-yl]-3-methyl-1-oxobutan-2-yl}carbamate] | 0.337 nM | 0.029 nM | 0.019 nM | 0.012 nM | 0.206 nM | 0.032 nM | 0.074 nM | 0.016 nM | 0.017 nM | 0.908 nM |
| CC[C@H](C)[C@H](NC(=O)OC)C(=O)N1[C@@H](C)CC[C@H]1c1ncc(-c2ccc3c(c2)COc2cc4c(ccc5nc([C@@H]6CC[C@H](C)N6C(=O)[C@@H](NC(=O)OC)C6C[C@@H](C)O[C@H](C)C6)[nH]c54)cc2-3)[nH]1 (stereo partly drawn) [Example AA, Methyl {(2S,3S)-1-[(2S,5S)-2-(5-{2-[(2S,5S)-1-{(2S)-2-[(2R,6R)-2,6-dimethyltetrahydro-2H-pyran-4-yl]-2-[(methoxycarbonyl)amino]acetyl}-5-methylpyrrolidin-2-yl]-1,11-dihydroisochromeno[4′,3′:6,7]naphtho[1,2-d]imidazol-9-yl}-1H-imidazol-2-yl)-5-methylpyrrolidin-1-yl]-3-methyl-1-oxopentan-2-yl}carbamate] | 0.57 nM | 0.017 nM | 0.016 nM | 0.008 nM | 0.322 nM | 0.029 nM | 0.145 nM | 0.011 nM | 0.014 nM | 0.498 nM |
| COC(=O)N[C@H](C(=O)N1[C@@H](C)CC[C@H]1c1ncc(-c2ccc3c(c2)COc2cc4c(ccc5nc([C@@H]6CC[C@H](C)N6C(=O)[C@@H](NC(=O)OC)C6C[C@@H](C)O[C@H](C)C6)[nH]c54)cc2-3)[nH]1)C1C[C@@H](C)O[C@H](C)C1 (stereo partly drawn) [Example AU, Methyl {(1S)-1-[(2R,6R)-2,6-dimethyltetrahydro-2H-pyran-4-yl]-2-[(2S,5S)-2-(5-{2-[(2S,5S)-1-{(2S)-2-[(2R,6R)-2,6-dimethyltetrahydro-2H-pyran-4-yl]-2-[(methoxycarbonyl)amino]acetyl}-5-methylpyrrolidin-2-yl]-1,11-dihydroisochromeno[4′,3′:6,7]naphtho[1,2-d]imidazol-9-yl}-1H-imidazol-2-yl)-5-methylpyrrolidin-1-yl]-2-oxoethyl}carbamate] | 0.089 nM | 0.039 nM | 0.029 nM | 0.017 nM | 0.026 nM | 0.023 nM | 0.042 nM | 0.013 nM | 0.029 nM | 0.059 nM |
| CC[C@H]1CC[C@@H](c2nc3ccc4cc5c(cc4c3[nH]2)OCc2cc(-c3cnc([C@@H]4CC[C@H](C)N4C(=O)[C@@H](NC(=O)OC)C(C)C)[nH]3)ccc2-5)N1C(=O)[C@@H](NC(=O)OC)C1CCOCC1 [Comp 3, reference compound] |  | 0.026 nM | 0.021 nM | 0.014 nM | 2.54 nM | 0.095 nM | 0.526 nM | 0.019 nM | 0.065 nM |  |
| COC(=O)N[C@H](C(=O)N1[C@@H](C)CC[C@H]1c1nc2ccc3cc4c(cc3c2[nH]1)OCc1cc(-c2cnc([C@@H]3CC[C@H](C)N3C(=O)[C@@H](NC(=O)OC)[C@H]3C[C@@H](C)O[C@@H](C)C3)[nH]2)ccc1-4)C(C)C [Example AO, Methyl {(2S)-1-[(2S,5S)-2-(9-{2-[(2S,5S)-1-{(2S)-2-[(2R,6S)-2,6-dimethyltetrahydro-2H-pyran-4-yl]-2-[(methoxycarbonyl)amino]acetyl}-5-methylpyrrolidin-2-yl]-1H-imidazol-5-yl}-1,11-dihydroisochromeno[4′,3′:6,7]naphtho[1,2-d]imidazol-2-yl)-5-methylpyrrolidin-1-yl]-3-methyl-1-oxobutan-2-yl}carbamate] | 9.03 nM | 0.015 nM | 0.012 nM | 0.018 nM |  | 0.045 nM | 1.78 nM | 0.008 nM | 0.021 nM | 17.5 nM |
| COC(=O)N[C@H](C(=O)N1[C@@H](C)CC[C@H]1c1nc2ccc3cc4c(cc3c2[nH]1)OCc1cc(-c2cnc([C@@H]3CC[C@H](C)N3C(=O)[C@@H](NC(=O)OC)C3C[C@@H](C)O[C@H](C)C3)[nH]2)ccc1-4)C(C)C (some centres unmarked) [Example AS] | 0.325 nM | 0.045 nM | 0.026 nM | 0.024 nM | 0.148 nM | 0.064 nM | 0.115 nM | 0.028 nM | 0.051 nM | 2.03 nM |
| CC[C@H](C)[C@H](NC(=O)OC)C(=O)N1[C@@H](C)CC[C@H]1c1nc2ccc3cc4c(cc3c2[nH]1)OCc1cc(-c2cnc([C@@H]3CC[C@H](C)N3C(=O)[C@@H](NC(=O)OC)C3CCOCC3)[nH]2)ccc1-4 [Comp 12, reference compound] | 1.38 nM | 0.022 nM | 0.013 nM | 17.7 nM | 1.24 nM | 0.07 nM |  | 0.009 nM | 0.026 nM | 0.097 nM |
| COC(=O)N[C@H](C(=O)N1[C@@H](C)CC[C@H]1c1ncc(-c2ccc3c(c2)COc2cc4c(ccc5nc([C@@H]6CC[C@H](C)N6C(=O)[C@@H](NC(=O)OC)[C@H]6C[C@@H](C)O[C@@H](C)C6)[nH]c54)cc2-3)[nH]1)C(C)C [Example AM, Methyl {(2S)-1-[(2S,5S)-2-(5-{2-[(2S,5S)-1-{(2S)-2-[(2R,6S)-2,6-dimethyltetrahydro-2H-pyran-4-yl]-2-[(methoxycarbonyl)amino]acetyl}-5-methylpyrrolidin-2-yl]-1,11-dihydroisochromeno[4′,3′:6,7]naphtho[1,2-d]imidazol-9-yl}-1H-imidazol-2-yl)-5-methylpyrrolidin-1-yl]-3-methyl-1-oxobutan-2-yl}carbamate] | 4.65 nM | 0.014 nM | 0.009 nM | 0.01 nM |  | 0.023 nM | 1.21 nM | 0.005 nM | 0.011 nM | 11.6 nM |
| COC[C@H]1C[C@@H](c2ncc(-c3ccc4c(c3)COc3cc5c(ccc6nc([C@@H]7CC[C@H](C)N7C(=O)[C@@H](NC(=O)OC)C7C[C@@H](C)O[C@H](C)C7)[nH]c65)cc3-4)[nH]2)N(C(=O)[C@@H](NC(=O)OC)C2C[C@@H](C)O[C@H](C)C2)C1 (stereo partly drawn) [Example BH, Methyl {(1S)-1-[(2R,6R)-2,6-dimethyltetrahydro-2H-pyran-4-yl]-2-[(2S,5S)-2-(9-{2-[(2S,4S)-1-{(2S)-2-[(2R,6R)-2,6-dimethyltetrahydro-2H-pyran-4-yl]-2-[(methoxycarbonyl)amino]acetyl}-4-(methoxymethyl)pyrrolidin-2-yl]-1H-imidazol-5-yl}-1,11-dihydroisochromeno[4′,3′:6,7]naphtho[1,2-d]imidazol-2-yl)-5-methylpyrrolidin-1-yl]-2-oxoethyl}carbamate] | 0.082 nM | 0.118 nM | 0.053 nM | 0.024 nM | 0.04 nM | 0.027 nM |  | 0.013 nM | 0.056 nM |  |
